We go through ten compounds from PubChem BioAssay (NCI).

Molecules are shown by their SMILES. Values joined by “and” are separate entries in the source; they are usually repeats but may differ in a detail not shown here. Identical values can stand only once.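 Results reflect a 48-hour exposure of cells in 96-well plates to compound at five concentrations. GI50 marks 50% less growth. TGI: total growth inhibition.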 Some results are limits rather than exact numbers.

Some test systems named below: MDA-MB-231 breast; HL-60(TB) leukemia; SF-539 CNS; PC-3 prostate; MCF7 breast; NCI-H23 lung; SN12C renal; OVCAR-5 ovarian.
Test in all cases: NCI-60 cell line screen, 48 h

Take `COC(=O)Nc1nc2c(OC)c(OC)c(OC)cc2[nH]1`: the GI50 is 18.7 µM in the assay with MDA-MB-231 breast; 6.33 µM in the assay on HL-60(TB) leukemia; 18.6 µM with SF-539 CNS; 24.2 µM in the assay with PC-3 prostate; 9.38 µM in the assay with MCF7 breast; 39.1 µM with NCI-H23 lung. For the same compound, the GI50 in the assay with SN12C renal is 74 µM; in the assay with OVCAR-5 ovarian it was 49.6 µM. In addition, the TGI was above 100 µM in the assay on MDA-MB-231 breast; above 89.5 µM in the assay on HL-60(TB) leukemia; 73.3 µM in the assay on SF-539 CNS; above 100 µM in the assay with PC-3 prostate; above 100 µM in the assay with MCF7 breast; above 100 µM in the assay on NCI-H23 lung. Also, the TGI in the assay with SN12C renal and in the assay with OVCAR-5 ovarian was above 100 µM each time.
For `O=C(Cc1ccccc1)Nc1nnc(CCSCCc2nnc(NC(=O)Cc3ccccc3)s2)s1`, the GI50 is 6.51 µM in the assay on MDA-MB-231 breast; 4.26 µM in the assay with HL-60(TB) leukemia; 22.8 µM with SF-539 CNS; 4.55 µM in the assay on PC-3 prostate; 32.6 µM in the assay on MCF7 breast; 28.8 µM in the assay on NCI-H23 lung. The figures for the GI50 in the assay on SN12C renal and in the assay on OVCAR-5 ovarian were 5.34 µM and above 100 µM, respectively. In addition, the TGI in the assay on MDA-MB-231 breast was 25.7 µM; with HL-60(TB) leukemia it was 65.4 µM; with SF-539 CNS, above 100 µM; in the assay on PC-3 prostate, above 100 µM; in the assay on MCF7 breast it was above 100 µM; in the assay with NCI-H23 lung it was above 100 µM. In addition, the values for the TGI in the assay with SN12C renal and with OVCAR-5 ovarian were 44.7 µM and above 100 µM, respectively.
In the case of `OC(COc1ccc(Cl)cc1Cl)CN1CCCC1` (stereo unspecified), the TGI with MDA-MB-231 breast, in the assay with HL-60(TB) leukemia, in the assay with SF-539 CNS, in the assay with PC-3 prostate, with MCF7 breast and in the assay with NCI-H23 lung was above 100 µM throughout. The TGI in the assay on SN12C renal and in the assay with OVCAR-5 ovarian was above 100 µM throughout.
With `NC1=CC(=O)C(=O)c2cccnc21`, the GI50 was 1.93 µM in the assay with MDA-MB-231 breast; 2.8 µM in the assay on HL-60(TB) leukemia; 7.59 µM in the assay with SF-539 CNS; 11.2 µM in the assay on PC-3 prostate; 3.74 µM in the assay with MCF7 breast; 2.06 µM in the assay with NCI-H23 lung. The GI50 in the assay on SN12C renal was 3.11 µM; in the assay on OVCAR-5 ovarian, 17.8 µM. For the same compound, the TGI stood at 18.8 µM with MDA-MB-231 breast; 9.08 µM in the assay with HL-60(TB) leukemia; 20.3 µM in the assay on SF-539 CNS; 49.2 µM with PC-3 prostate; 16.8 µM with MCF7 breast; 7.84 µM with NCI-H23 lung. For the same compound, the TGI in the assay with SN12C renal amounted to 13.4 µM; with OVCAR-5 ovarian it was 34.3 µM.
For `Clc1ccccc1-c1nc2ccccc2[nH]1`, the GI50 in the assay on MDA-MB-231 breast, with HL-60(TB) leukemia, in the assay with SF-539 CNS, in the assay on PC-3 prostate, with MCF7 breast and with NCI-H23 lung was above 100 µM throughout. In addition, the GI50 in the assay with SN12C renal and in the assay on OVCAR-5 ovarian was above 100 µM in each case. The TGI with MDA-MB-231 breast, in the assay with HL-60(TB) leukemia, with SF-539 CNS, with PC-3 prostate, in the assay on MCF7 breast and in the assay with NCI-H23 lung was above 100 µM each time. Besides, the TGI with SN12C renal and with OVCAR-5 ovarian was above 100 µM throughout.
For `COc1ccc(S(=O)(=O)O)cc1NS(=O)(=O)c1ccc(C)cc1`, the TGI with MDA-MB-231 breast, with HL-60(TB) leukemia, with SF-539 CNS, in the assay with PC-3 prostate, in the assay with MCF7 breast and in the assay with NCI-H23 lung was above 100 µM in each case. Besides, the TGI in the assay with SN12C renal and in the assay on OVCAR-5 ovarian was above 100 µM each time.
On to `CC(C)(C)c1ccc(C(=O)N/N=C/c2ccc(O)cc2O)cc1`, for which the GI50 with MDA-MB-231 breast was 0.5 µM; in the assay on HL-60(TB) leukemia it was 0.411 µM; with SF-539 CNS, 0.452 µM; in the assay with PC-3 prostate, 0.706 µM; in the assay on MCF7 breast, 0.322 µM; in the assay on NCI-H23 lung, 0.839 µM. The GI50 with SN12C renal is 0.801 µM; in the assay with OVCAR-5 ovarian, 0.661 µM. The TGI with MDA-MB-231 breast was found to be 5.83 µM; in the assay with HL-60(TB) leukemia it was 8.27 µM; in the assay with SF-539 CNS, 2.98 µM; with PC-3 prostate it was 21.8 µM; in the assay on MCF7 breast, 12.7 µM; in the assay on NCI-H23 lung, 13.3 µM. For the same compound, the TGI in the assay on SN12C renal turned out to be 13 µM; in the assay on OVCAR-5 ovarian it was 14.7 µM.
`COC(=O)[C@]12CC[C@@H](C)[C@H](C)[C@@H]1C1=CC[C@@H]3[C@@]4(C)C(c5ncon5)=C[C@@](C)(CO)C4=CC[C@@]3(C)[C@]1(C)CC2`: the GI50 is 2.2 µM with MDA-MB-231 breast; 2.13 µM in the assay on HL-60(TB) leukemia; 1.97 µM in the assay on SF-539 CNS; 2.1 µM with PC-3 prostate; 1.42 µM in the assay with MCF7 breast; 2.01 µM in the assay with NCI-H23 lung. Also, the results for the GI50 in the assay with SN12C renal and in the assay on OVCAR-5 ovarian were 3.05 µM and 5.2 µM, respectively. Further, the TGI in the assay with MDA-MB-231 breast was 5.08 µM; in the assay on HL-60(TB) leukemia, 5.04 µM; in the assay with SF-539 CNS, 3.89 µM; with PC-3 prostate, 4.7 µM; in the assay with MCF7 breast, 2.9 µM; with NCI-H23 lung it was 4.52 µM. The TGI in the assay with SN12C renal is 10.6 µM; in the assay on OVCAR-5 ovarian, 26.8 µM.
Regarding `Cc1cc2nc3ccc(N=Nc4ccc(N(C)C)cc4)cc3n(-c3ccccc3)c-2cc1=N`, the GI50 is 0.074 µM with MDA-MB-231 breast; 0.00334 µM and 0.0119 µM in the assay with HL-60(TB) leukemia; 0.0226 µM in the assay with SF-539 CNS; 0.0143 µM in the assay with PC-3 prostate; 0.00199 µM in the assay on MCF7 breast; 0.0253 µM with NCI-H23 lung. In the assay with OVCAR-5 ovarian, the GI50 was 0.0486 µM. For the same compound, the TGI is 0.466 µM in the assay on MDA-MB-231 breast; 0.153 µM with SF-539 CNS; 0.183 µM with PC-3 prostate; 0.0143 µM in the assay with MCF7 breast; 0.418 µM with NCI-H23 lung; 1.55 µM in the assay on OVCAR-5 ovarian.
In the case of `O=C1OCC2=C1C(c1cccc(F)c1)c1cc3c(cc1N2CCO)OCCO3` (stereo unspecified), the GI50 in the assay on MDA-MB-231 breast is 0.32 µM; with HL-60(TB) leukemia it was 0.137 µM; in the assay on SF-539 CNS, 0.141 µM; with PC-3 prostate it was 0.195 µM; in the assay on MCF7 breast it was 0.13 µM; in the assay with NCI-H23 lung, 0.35 µM. Besides, the GI50 is 0.345 µM with SN12C renal and 0.541 µM in the assay with OVCAR-5 ovarian. For the same compound, the TGI with MDA-MB-231 breast is above 20.3 µM; in the assay with HL-60(TB) leukemia it was 0.387 µM; in the assay on SF-539 CNS, 0.831 µM; in the assay with PC-3 prostate it was above 50 µM; in the assay on MCF7 breast, above 50 µM; in the assay on NCI-H23 lung, above 50 µM. The TGI in the assay with SN12C renal and in the assay with OVCAR-5 ovarian was above 50 µM throughout.
